Test results as given in patent US20100125085A1, “PYRIDOINDOLE MODULATORS OF NMDA RECEPTOR AND ACETYLCHOLINESTERASE” (AUSPEX PHARMACEUTICALS, INC., priority 2008, published 2010).

Key:
[1] = sites of metabolism of dimebolin in humans; format: in vivo; conditions: discoveries made in our laboratory and literature
[2] = cited from earlier work

## Cc1ccc2c(c1)c1c(n2CCc2ccc(C)nc2)CCN(C)C1 [dimebolin, 2,8-dimethyl-5-[2-(6-methyl-pyridin-3-yl)-ethyl]-2,3,4,5-tetrahydro-1H-pyrido[4,3-b]indole]
[1]
  sites of metabolism: metabolized in humans at the pyridyl methyl group, the tolyl methyl group, the ethylene linker, and the N-methyl group
[2]; >5% of patients and at least twice the incidence of placebo
  common adverse events: dry mouth, depressed mood/depression, and hyperhidrosis
[2]; double-blind study, dimebolin group
  patients reporting at least 1 serious adverse effect: 3%
[2]; double-blind study, patients taking dimebolin
  patients reporting at least 1 adverse effect: 79%
